The nature of this data set: Solubility in Dowanol PM (2-methoxy propanol). Particulars: 20 °C, organic solvent or mixture. The data set is classed as physicochemical. The text has this:
The imagable layers comprise a radiation-sensitive imaging composition that includes one or more infrared radiation absorbing dyes. […] 2-Methoxy propanol (or propylene glycol methyl ether) is available from various commercial sources, and for example, can be obtained in Dowanol® PM. In some embodiments, the ion exchange products formed between the infrared radiation absorbing cyanine cation and any counter anion from any other components, for example, a free radical initiator, in the imagable layer.
Dowanol® PM is propylene glycol methyl ether that is available from Dow Chemical.

Setting [1] is: Dowanol PM (2-methoxy propanol), Table I, read-out: S1, Solubility of IR Dye in Dowanol PM.
Where [2] appears, read: Dowanol PM (2-methoxy propanol), Table II, read-out: S1, solubility of IR Dye in Dowanol PM.
Setting [3] is: Dowanol PM (2-methoxy propanol), Table IV, read-out: S1, solubility of IR Dye in Dowanol PM.
Where [4] appears, read: tetraphenyl borate salt of the dye cation, Dowanol PM, Table II, read-out: S2, solubility of the tetraphenyl borate salt of the IR cation in Dowanol PM.
Where [5] appears, read: tetraphenyl borate salt of the dye cation, Dowanol PM, Table IV, read-out: S2, solubility of the tetraphenyl borate salt of the IR cation in Dowanol PM.
Where [6] appears, read: tetraphenylborate salt of the dye cation, Dowanol PM, Table I, read-out: S2, Solubility of the tetraphenylborate salt of the IR cation in Dowanol PM.

Like-named read-outs stand apart in the source and are kept apart here.

For orientation: solubility means the dissolved amount per volume that the medium holds.

For `CN1/C(=C/C=C2\CCCC(/C=C/C3=[N+](C)c4ccccc4C3(C)C)=C2Sc2nnnn2-c2ccccc2)C(C)(C)c2ccccc21` [compound 1], the solubility is, setting by setting: under setting [1], 192 mg/mL; under setting [2], 192 mg/mL; under setting [3], 192 mg/mL; under setting [4], 1.4 mg/mL; under setting [5], 1.4 mg/mL; under setting [6], 1.4 mg/mL.
As to `C=Cc1ccc(CSc2nnc(SC3=C(/C=C/C4=[N+](C)c5ccccc5C4(C)C)CCC/C3=C\C=C3\N(C)c4ccccc4C3(C)C)s2)cc1` [compound 2], the solubility under setting [2] was found to be 128 mg/mL; the solubility under setting [3] was found to be 128 mg/mL; the solubility under setting [4] is 4.8 mg/mL; the solubility under setting [5] came to 4.8 mg/mL; the solubility under setting [6] came to 4.8 mg/mL.
In the case of `CN1/C(=C/C=C2\CCCC(/C=C/C3=[N+](C)c4ccccc4C3(C)C)=C2Sc2ccc(C(C)(C)C)cc2)C(C)(C)c2ccccc21` [compound 4], the solubility is, setting by setting: under setting [1], 97 mg/mL; under setting [6], 21 mg/mL.
